The record followed here is US10364238B2, “N-((het) arylmethyl)-heteroaryl-carboxamides compounds as plasma kallikrein inhibitors” (KALVISTA PHARMACEUTICALS LIMITED, priority 2014, dated 2019).

SMILES strings stand for the structures. pIC50: −log10 of the molar value.

One data set deals with Human plasma kallikrein (Homo sapiens (Human), UniProt P03952). Briefly: Determination of the IC50 for plasma kallikrein. Particulars: 25° C., fluorogenic substrate H-DPro-Phe-Arg-AFC; read-out: IC50 (human PKaI). The format is biochemical. On the procedure:
Determination of the IC50 for Plasma Kallikrein
Human plasma kallikrein (Protogen) was incubated at 25° C. with the fluorogenic substrate H-DPro-Phe-Arg-AFC and various concentrations of the test compound. Residual enzyme activity (initial rate of reaction) was determined by measuring the change in […] at 410 nm and the IC50 value for the test compound was determined.

Data set [1] can be described thus: Pharmacokinetics following a single oral dose in rats. The format is in vivo. Particulars: rat, nominal 10 mg/kg, male Sprague-Dawley rats, plasma. How it is done:
Pharmacokinetic studies of the compounds in Table 15 were performed to assess the pharmacokinetics following a single oral dose in male Sprague-Dawley rats. Two rats were given a single po dose of 5 mL/kg of a nominal 2 mg/mL (10 mg/kg) composition of test compound in vehicle. Following dosing, blood samples were collected over a period of 24 hours. Sample times were 5, 15 and 30 minutes then 1, 2, 4, 6, 8 and 12 hours. Following collection, blood samples were centrifuged and the plasma fraction analysed for concentration of test compound by LCMS.

The target of a further data set is Human KLK1 (Homo sapiens (Human), UniProt P06870). Briefly: Determination of the IC50 for KLK1. The data set is classed as biochemical. Conditions: 25° C., fluorogenic substrate H-DVal-Leu-Arg-AFC. How it is done: Determination of the IC50 for KLK1
Human KLK1 (Callbiochem) was incubated at 25° C. with the fluorogenic substrate H-DVal-Leu-Arg-AFC and various concentrations of the test compound. Residual enzyme activity (initial rate of reaction) was determined by measuring the change in […] at 410 nm and the IC50 value for the test compound was determined.

For a further data set, the target named is Human FXIa (Homo sapiens (Human), UniProt P03951). Briefly: Determination of the % inhibition for FXIa. The data set is classed as biochemical. Particulars: 40 μM test compound, 25° C., substrate Z-Gly-Pro-Arg-AFC. On the procedure:
Determination of the % Inhibition for FXIa
Human FXIa (Enzyme Research Laboratories) was incubated at 25° C. with the fluorogenic substrate Z-Gly-Pro-Arg-AFC and 40 μM of the test compound. Residual enzyme activity (initial rate of reaction) was determined by measuring the change in […].

Human FXIa, sequence (P03951 388-625): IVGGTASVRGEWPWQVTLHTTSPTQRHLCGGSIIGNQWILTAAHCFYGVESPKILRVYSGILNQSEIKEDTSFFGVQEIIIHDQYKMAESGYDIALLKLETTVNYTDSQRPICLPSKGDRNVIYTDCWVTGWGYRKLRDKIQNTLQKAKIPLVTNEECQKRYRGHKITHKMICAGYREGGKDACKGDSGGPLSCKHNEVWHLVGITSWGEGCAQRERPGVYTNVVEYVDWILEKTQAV
Human FXIa, sequence (P03951 19-387 partner): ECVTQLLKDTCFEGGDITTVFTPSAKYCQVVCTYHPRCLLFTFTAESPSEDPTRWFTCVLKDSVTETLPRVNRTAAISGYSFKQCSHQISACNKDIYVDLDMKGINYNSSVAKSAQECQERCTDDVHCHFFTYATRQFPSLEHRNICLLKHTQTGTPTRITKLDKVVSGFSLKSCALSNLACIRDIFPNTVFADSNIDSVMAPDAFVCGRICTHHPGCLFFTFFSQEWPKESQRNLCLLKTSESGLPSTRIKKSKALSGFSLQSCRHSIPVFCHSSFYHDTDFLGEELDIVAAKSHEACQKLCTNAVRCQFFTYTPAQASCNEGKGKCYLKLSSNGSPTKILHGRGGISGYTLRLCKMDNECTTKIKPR
Human plasma kallikrein, sequence (P03952 391-638): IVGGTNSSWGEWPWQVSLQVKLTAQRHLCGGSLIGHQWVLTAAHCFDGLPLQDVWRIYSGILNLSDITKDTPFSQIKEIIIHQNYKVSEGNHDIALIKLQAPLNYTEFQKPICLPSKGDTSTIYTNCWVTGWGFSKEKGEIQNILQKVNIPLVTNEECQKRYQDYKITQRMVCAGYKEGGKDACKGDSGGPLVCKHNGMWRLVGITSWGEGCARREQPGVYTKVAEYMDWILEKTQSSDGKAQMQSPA
Human plasma kallikrein, sequence (P03952 20-390 partner): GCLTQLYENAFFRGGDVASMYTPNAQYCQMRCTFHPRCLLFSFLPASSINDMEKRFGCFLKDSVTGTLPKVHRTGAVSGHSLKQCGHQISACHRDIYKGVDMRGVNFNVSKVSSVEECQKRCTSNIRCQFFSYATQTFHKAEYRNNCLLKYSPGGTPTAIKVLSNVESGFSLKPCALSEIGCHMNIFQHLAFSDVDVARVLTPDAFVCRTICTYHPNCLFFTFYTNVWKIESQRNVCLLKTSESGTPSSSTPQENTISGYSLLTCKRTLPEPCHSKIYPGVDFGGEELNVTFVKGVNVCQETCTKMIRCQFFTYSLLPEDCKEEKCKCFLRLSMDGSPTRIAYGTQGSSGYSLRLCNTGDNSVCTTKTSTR
Human KLK1, sequence (P06870 25-262): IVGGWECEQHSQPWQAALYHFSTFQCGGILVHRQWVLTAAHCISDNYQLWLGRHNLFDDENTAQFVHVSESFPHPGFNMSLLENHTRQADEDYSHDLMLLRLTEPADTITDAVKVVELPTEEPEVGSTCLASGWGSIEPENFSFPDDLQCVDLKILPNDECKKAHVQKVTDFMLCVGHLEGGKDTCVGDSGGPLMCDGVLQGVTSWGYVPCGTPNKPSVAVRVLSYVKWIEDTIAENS

Broadly, the pIC50 is the negative decadic logarithm of the IC50, by convention in mol/L. One may read the Cmax as the maximum level reached in the sampled fluid or tissue. The Tmax is the time at which the peak concentration occurs. Take `COCc1nn(Cc2ccc(Cn3ccccc3=O)cc2)cc1C(=O)NCc1cccc(OC)c1F` [Example 53, N-[(2-fluoro-3-methoxyphenyl)methyl]-3-(methoxymethyl)-1-({4-[(2-oxopyridin-1-yl)methyl]phenyl}methyl)pyrazole-4-carboxamide]: the pIC50 on Human plasma kallikrein is 7.69. Also, in data set [1], the Cmax was 1030 ng/mL and the time of peak concentration (Tmax) was 15 min. Also, the pIC50 against Human KLK1 was under 5.00.

The term inhibition denotes the share of the control response that was lost under treatment. The low end stands for a weak effect, the high end for a strong effect. Regarding `CCOc1ccn(Cc2ccc(Cn3cc(C(=O)NCc4c(F)ccc(OC)c4F)c(COC)n3)cc2)c(=O)c1` [Example 109, N-[(2,6-difluoro-3-methoxyphenyl)methyl]-1-({4-[(4-ethoxy-2-oxopyridin-1-yl)methyl]phenyl}methyl)-3-(methoxymethyl)pyrazole-4-carboxamide], the pIC50 on Human plasma kallikrein was 5.53; at Human KLK1, under 5.00. At Human FXIa, this compound displayed an inhibition at 40 µM of 2%.

Take `Nc1nn(Cc2ccc(Cn3ccccc3=O)cc2)cc1C(=O)NCc1c(F)cccc1C(F)(F)F` [Example 70, 3-amino-N-{[2-fluoro-6-(trifluoromethyl)phenyl]methyl}-1-({4-[(2-oxopyridin-1-yl)methyl]phenyl}methyl)pyrazole-4-carboxamide]: the results for the negative logarithm of the IC50 (pIC50) on Human plasma kallikrein and at Human KLK1 were 7.57 and under 5.00, respectively. Further, the inhibition at 40 µM at Human FXIa turned out to be 6%.

Take `COCc1nn(Cc2cnc3cc(Cl)ccc3c2)cc1C(=O)NCc1cccc(OC)c1F` [Example 3, 1-(7-Chloro-quinolin-3-ylmethyl)-3-methoxymethyl-1H-pyrazole-4-carboxylic acid 2-fluoro-3-methoxy-benzylamide]: the negative logarithm of the IC50 (pIC50) was 5.59 on Human plasma kallikrein and under 5.00 against Human KLK1. On Human FXIa, this compound gave an inhibition at 40 µM of 3%.

`NC(=O)c1ccccc1CNC(=O)c1cn(Cc2ccc(Cn3ccccc3=O)cc2)nc1C1CC1` [Example 48, N-[(2-carbamoylphenyl)methyl]-3-cyclopropyl-1-({4-[(2-oxopyridin-1-yl)methyl]phenyl}methyl)pyrazole-4-carboxamide]: the figures for the pIC50 on Human plasma kallikrein and against Human KLK1 were 6.19 and under 5.00, respectively. Testing at 40 µM at Human FXIa gave an inhibition of 2%.

As for `COCc1nn(Cc2ccc(Cn3ccccc3=O)cc2)cc1C(=O)NCc1cc(Cl)ccc1C#N` [Example 76, N-[(5-chloro-2-cyanophenyl)methyl]-3-(methoxymethyl)-1-({4-[(2-oxopyridin-1-yl)methyl]phenyl}methyl)pyrazole-4-carboxamide], the negative logarithm of the IC50 (pIC50) was 7.55 on Human plasma kallikrein and under 4.40 against Human KLK1. The compound also gave an inhibition at 40 µM against Human FXIa of 5%.

As to `COCc1nn(Cc2ccc(Cn3ccccc3=O)cc2)cc1C(=O)NCc1ccccc1C(=O)O` [Example 87, 2-({[3-(methoxymethyl)-1-({4-[(2-oxopyridin-1-yl)methyl]phenyl}methyl)pyrazol-4-yl]formamido}methyl)benzoic acid], the pIC50 on Human plasma kallikrein and at Human KLK1 was under 5.00 each time. The compound also gave an inhibition at 40 µM on Human FXIa of 2%.

Turning to `COc1cccc(CNC(=O)c2cn(Cc3ccc(Cn4ccccc4=O)cc3)c(C(F)(F)F)n2)c1F` [Example 124, N-[(2-fluoro-3-methoxyphenyl)methyl]-1-({4-[(2-oxopyrldin-1-yl)methyl]phenyl}methyl)-2-(trifluoromethyl)imidazole-4-carboxamide], the negative-log IC50 (pIC50) at Human plasma kallikrein was 6.72; at Human KLK1, under 5.00. Testing at 40 µM against Human FXIa gave an inhibition of 0%.

For `COCc1nn(Cc2ccc(Cn3ccccc3=O)cc2)cc1C(=O)NCc1cc(F)cc(OC)c1F` [Example 96, N-[(2,5-difluoro-3-methoxyphenyl)methyl]-3-(methoxymethyl)-1-({4-[(2-oxopyridin-1-yl)methyl]phenyl}methyl)pyrazole-4-carboxamide], the pIC50 on Human plasma kallikrein is 7.12; against Human KLK1, under 4.40. The inhibition at 40 µM against Human FXIa worked out at 0%.

As to `COCc1nn(Cc2ccc(Cn3ccccc3=O)cc2)cc1C(=O)NCc1c(OC)ccc(OC)c1F` [Example 54, N-[(2-fluoro-3,6-dimethoxyphenyl)methyl]-3-(methoxymethyl)-1-({4-[(2-oxopyridin-1-yl)methyl]phenyl}methyl)pyrazole-4-carboxamide], the pIC50 on Human plasma kallikrein is 8.68; against Human KLK1 it was under 4.40. The compound also returned an inhibition at 40 µM against Human FXIa of 17%.

As to `COCc1nn(Cc2ccc(Cn3ccccc3=O)cc2)cc1C(=O)NCc1ccc(C)cc1F` [Example 65, N-[(2-fluoro-4-methylphenyl)methyl]-3-(methoxymethyl)-1-({4-[(2-oxopyridin-1-yl)methyl]phenyl}methyl)pyrazole-4-carboxamide], the pIC50 on Human plasma kallikrein is 7.36; on Human KLK1, under 5.00. In addition, on Human FXIa, the inhibition at 40 µM is 0%.

As for `O=C(NCc1c(F)cccc1C(F)(F)F)c1cn(Cc2ccc(Cn3ccccc3=O)cc2)nc1C(F)(F)F` [Example 51, N-{[2-fluoro-6-(trifluoromethyl)phenyl]methyl}-1-({4-[(2-oxopyridin-1-yl)methyl]phenyl}methyl)-3-(trifluoromethyl)pyrazole-4-carboxamide], the negative-log IC50 (pIC50) on Human plasma kallikrein was 7.31. Moreover, in data set [1], the Cmax worked out at 101 ng/mL and the time of peak concentration (Tmax) was 15 min. Besides, the pIC50 on Human KLK1 was under 4.40.

In the case of `COCc1nn(Cc2ccc(Cn3ccccc3=O)cc2)cc1C(=O)NCc1c(C#N)ccc(OC)c1F` [Example 77, N-[(6-cyano-2-fluoro-3-methoxyphenyl)methyl]-3-(methoxymethyl)-1-({4-[(2-oxopyridin-1-yl)methyl]phenyl}methyl)pyrazole-4-carboxamide], the negative logarithm of the IC50 (pIC50) at Human plasma kallikrein was 9.22. Testing at 40 µM against Human FXIa gave an inhibition of 28%. Besides, in data set [1], the peak concentration (Cmax) amounted to 397 ng/mL and the Tmax was 30 min.

For the compound `COCc1nn(Cc2ccc(Cn3ccccc3=O)cc2)cc1C(=O)NCc1cc(OC)cc(OC)c1` [Example 1, N-(3,5-Dimethoxybenzyl)-3-(methoxymethyl)-1-(4-((2-oxopyridin-1(2H)-yl)methyl)benzyl)-1H-pyrazole-4-carboxamide], the negative logarithm of the IC50 (pIC50) at Human plasma kallikrein was 6.16; against Human KLK1, under 5.00. This compound also registered an inhibition at 40 µM on Human FXIa of 0%.

Take `Nc1nn(Cc2ccc(Cn3ccccc3=O)cc2)cc1C(=O)NCC1CNc2ccc(Cl)cc2O1` (stereo not drawn) [Example 140, 3-amino-N-[(7-chloro-3,4-dihydro-2H-1,4-benzoxazin-2-yl)methyl]-1-({4-[(2-oxopyridin-1-yl)methyl]phenyl}methyl)pyrazole-4-carboxamide]: the pIC50 at Human plasma kallikrein is 7.97; at Human KLK1, under 4.40. At Human FXIa, this compound displayed an inhibition at 40 µM of 9%.

Consider `COCc1nn(Cc2ccc(Cn3ccccc3=O)cc2)cc1C(=O)NCc1cc(F)ccc1F` [Example 94, N-[(2,5-difluorophenyl)methyl]-3-(methoxymethyl)-1-({4-[(2-oxopyridin-1-yl)methyl]phenyl}methyl)pyrazole-4-carboxamide], for which the negative-log IC50 (pIC50) at Human plasma kallikrein is 6.11; against Human KLK1, under 5.00. Also, on Human FXIa, the inhibition at 40 µM turned out to be 0%.

Turning to `COCc1nn(Cc2ccc(Cn3ccccc3=O)cc2)cc1C(=O)NCc1cc(OC)ccc1C(F)F` [Example 81, N-{[2-(difluoromethyl)-5-methoxyphenyl]methyl}-3-(methoxymethyl)-1-({4-[(2-oxopyridin-1-yl)methyl]phenyl}methyl)pyrazole-4-carboxamide], the pIC50 was 8.64 on Human plasma kallikrein and under 4.40 against Human KLK1. The compound further registered an inhibition at 40 µM on Human FXIa of 1%.

As for `COCc1nn(Cc2ccc(Cn3ccccc3=O)cc2)cc1C(=O)NCc1ccccc1C(F)(F)F` [Example 63, 3-(methoxymethyl)-1-({4-[(2-oxopyridin-1-yl)methyl]phenyl}methyl)-N-{[2-(trifluoromethyl)phenyl]methyl}pyrazole-4-carboxamide], the pIC50 was 6.47 at Human plasma kallikrein and under 5.00 against Human KLK1. At Human FXIa, this compound showed an inhibition at 40 µM of 0%.

For `COCc1nn(Cc2ccc(Cn3ccccc3=O)cc2)cc1C(=O)NCc1cc(Cl)cc(OC)c1` [Example 67, N-[(3-chloro-5-methoxyphenyl)methyl]-3-(methoxymethyl)-1-({4-[(2-oxopyridin-1-yl)methyl]phenyl}methyl)pyrazole-4-carboxamide], the negative-log IC50 (pIC50) is 6.41 at Human plasma kallikrein and under 5.00 against Human KLK1. On Human FXIa, this compound came in with an inhibition at 40 µM of 0%.

With `COc1cccc(CNC(=O)c2cn(Cc3ccc(Cn4ccccc4=O)cc3)nc2N(C)C)c1F` [Example 59, 3-(dimethylamino)-N-[(2-fluoro-3-methoxyphenyl)methyl]-1-({4-[(2-oxopyridin-1-yl)methyl]phenyl}methyl)pyrazole-4-carboxamide], the results for the negative-log IC50 (pIC50) at Human plasma kallikrein and at Human KLK1 were 7.13 and under 5.00, respectively. For the same compound, at Human FXIa, testing at 40 µM gave an inhibition of 0%.
